From PubChem BioAssay AID248 (DTP/NCI, 2004)
“And” between values parts separate entries of the source, which are not always exact repeats. Identical values can stand only once. Toxic doses and inconclusive results are not listed. Rule as the data show it: active = T/C of 150% or more; inactive = T/C below 125%.

Tested on: L1210 leukemia ip in BDF1 mice, survival T/C
Experiment: NCI In Vivo Anticancer Drug Screen. Data for tumor model L1210 Leukemia (intraperitoneal) in B6D2F1 (BDF1) mice
Conditions: endpoint: mean survival time, higher = longer survival
In short: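 Value reflects the ratio of survival in compound-treated mice to survival in vehicle-treated controls, with both groups carrying the same transplanted tumor.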

[1] = dose: 100.0 mg/kg/injection, schedule: Q01DX001 (ip), vehicle: carboxymethylcellulose (CMC)
[2] = dose: 200.0 mg/kg/injection, schedule: Q01DX001 (ip), vehicle: carboxymethylcellulose (CMC)
[3] = dose: 400.0 mg/kg/injection, schedule: Q01DX001 (ip), vehicle: carboxymethylcellulose (CMC)
[4] = dose: 50.0 mg/kg/injection, schedule: Q01DX009 (ip), vehicle: saline with Tween-80
[5] = dose: 100.0 mg/kg/injection, schedule: Q01DX001 (ip), vehicle: saline with Tween-80
[6] = dose: 100.0 mg/kg/injection, schedule: Q01DX009 (ip), vehicle: saline with Tween-80
[7] = dose: 200.0 mg/kg/injection, schedule: Q01DX001 (ip), vehicle: saline with Tween-80
[8] = dose: 200.0 mg/kg/injection, schedule: Q01DX009 (ip), vehicle: saline with Tween-80
[9] = dose: 400.0 mg/kg/injection, schedule: Q01DX001 (ip), vehicle: saline with Tween-80
[10] = dose: 100.0 mg/kg/injection, schedule: Q01DX009 (ip), vehicle: Klucel (hydroxypropylcellulose) (HPC)
[11] = dose: 200.0 mg/kg/injection, schedule: Q01DX009 (ip), vehicle: Klucel (hydroxypropylcellulose) (HPC)
[12] = dose: 400.0 mg/kg/injection, schedule: Q01DX009 (ip), vehicle: Klucel (hydroxypropylcellulose) (HPC)
[13] = dose: 200.0 mg/kg/injection, schedule: Q04DX003 (ip), vehicle: saline with Tween-80
[14] = dose: 400.0 mg/kg/injection, schedule: Q04DX003 (ip), vehicle: saline with Tween-80
[15] = dose: 50.0 mg/kg/injection, schedule: Q01DX009 (ip), vehicle: Klucel (hydroxypropylcellulose) (HPC)
[16] = dose: 100.0 mg/kg/injection, schedule: Q04DX003 (ip), vehicle: Klucel (hydroxypropylcellulose) (HPC)
[17] = dose: 200.0 mg/kg/injection, schedule: Q04DX003 (ip), vehicle: Klucel (hydroxypropylcellulose) (HPC)
[18] = dose: 50.0 mg/kg/injection, schedule: Q01DX009 (ip), vehicle: saline

Measured: T/C

Nc1nc(Cl)c(N=Nc2ccccc2)c(=O)[nH]1
inactive: dose: 25.0 mg/kg/injection, schedule: Q01DX009 (ip), vehicle: carboxymethylcellulose (CMC) 97 % of control and 98 % of control | dose: 50.0 mg/kg/injection, schedule: Q01DX009 (ip), vehicle: carboxymethylcellulose (CMC) 93 % of control and 90 % of control | [1] 95 % of control and 102 % of control | dose: 100.0 mg/kg/injection, schedule: Q04DX002 (ip), vehicle: carboxymethylcellulose (CMC) 97 % of control and 89 % of control | dose: 100.0 mg/kg/injection, schedule: Q04DX003 (ip), vehicle: carboxymethylcellulose (CMC) 100 % of control and 108 % of control | [2] 98 % of control and 109 % of control | dose: 200.0 mg/kg/injection, schedule: Q04DX002 (ip), vehicle: carboxymethylcellulose (CMC) 93 % of control | dose: 200.0 mg/kg/injection, schedule: Q04DX003 (ip), vehicle: carboxymethylcellulose (CMC) 106 % of control and 113 % of control | [3] 95 % of control and 98 % of control | dose: 400.0 mg/kg/injection, schedule: Q04DX002 (ip), vehicle: carboxymethylcellulose (CMC) 93 % of control and 98 % of control | dose: 400.0 mg/kg/injection, schedule: Q04DX003 (ip), vehicle: carboxymethylcellulose (CMC) 100 % of control and 106 % of control

Clc1ccccc1C=NCC1CCC(CN=Cc2ccccc2Cl)CC1 (stereo not drawn)
inactive: [4] 92 % of control and 100 % of control | [5] 106 % of control | [6] 92 % of control | dose: 100.0 mg/kg/injection, schedule: Q04DX002 (ip), vehicle: saline with Tween-80 104 % of control and 88 % of control | [7] 93 % of control | [8] 90 % of control | dose: 200.0 mg/kg/injection, schedule: Q04DX002 (ip), vehicle: saline with Tween-80 100 % of control | [9] 98 % of control | dose: 400.0 mg/kg/injection, schedule: Q04DX002 (ip), vehicle: saline with Tween-80 89 % of control

Cc1ccc([N+](=O)[O-])cc1NC(=O)Nc1ccccc1C(F)(F)F
inactive: [10] 93 % of control | [11] 96 % of control | [12] 95 % of control

CCOP(=S)(OCC)SC(C)c1ccccc1 (stereo not drawn)
inactive: [4] 95 % of control | [6] 91 % of control | [8] 100 % of control

COC1OC2COc3ccccc3OC2C(NC(N)=S)C1S (stereo not drawn)
inactive: dose: 100.0 mg/kg/injection, schedule: Q04DX003 (ip), vehicle: saline with Tween-80 102 % of control | [13] 95 % of control | [14] 102 % of control

O=[N+]([O-])c1cc([N+](=O)[O-])c(NN(c2ccccc2)c2cccc3ccccc23)c([N+](=O)[O-])c1
inactive: [15] 101 % of control | [10] 101 % of control | [16] 96 % of control | [11] 102 % of control | [17] 94 % of control | [12] 98 % of control | dose: 400.0 mg/kg/injection, schedule: Q04DX003 (ip), vehicle: Klucel (hydroxypropylcellulose) (HPC) 94 % of control

CC1(C)OC2(C)OC1(C)OC2(C)C
inactive: dose: 75.0 mg/kg/injection, schedule: Q01DX009 (ip), vehicle: carboxymethylcellulose (CMC) 100 % of control | dose: 150.0 mg/kg/injection, schedule: Q01DX009 (ip), vehicle: carboxymethylcellulose (CMC) 103 % of control | dose: 300.0 mg/kg/injection, schedule: Q01DX009 (ip), vehicle: carboxymethylcellulose (CMC) 105 % of control

Cc1cc(C)c(CCc2c(C)cc(C)cc2C)c(C)c1
inactive: [13] 104 % of control | [14] 102 % of control

C[N+]1(C)C2CCCC1CC(=O)NC2 (stereo not drawn)
inactive: dose: 75.0 mg/kg/injection, schedule: Q01DX001 (ip), vehicle: saline 107 % of control | dose: 150.0 mg/kg/injection, schedule: Q01DX001 (ip), vehicle: saline 104 % of control | dose: 300.0 mg/kg/injection, schedule: Q01DX001 (ip), vehicle: saline 112 % of control

CSc1nccc(=O)n1C
inactive: dose: 12.5 mg/kg/injection, schedule: Q01DX009 (ip), vehicle: saline 96 % of control | dose: 25.0 mg/kg/injection, schedule: Q01DX009 (ip), vehicle: saline 96 % of control | dose: 25.0 mg/kg/injection, schedule: Q04DX003 (ip), vehicle: saline 98 % of control | [18] 101 % of control | dose: 50.0 mg/kg/injection, schedule: Q04DX003 (ip), vehicle: saline 106 % of control | dose: 100.0 mg/kg/injection, schedule: Q04DX003 (ip), vehicle: saline 107 % of control

c1ccc(-c2nnc(-c3ccccc3)o2)cc1
inactive: [15] 95 % of control | [10] 101 % of control | [11] 94 % of control

CCCCCCCCCC(=O)CCCCC
inactive: dose: 100.0 mg/kg/injection, schedule: Q01DX009 (ip), vehicle: other 100 % of control | dose: 200.0 mg/kg/injection, schedule: Q01DX009 (ip), vehicle: other 98 % of control | dose: 400.0 mg/kg/injection, schedule: Q01DX009 (ip), vehicle: other 93 % of control

COc1cccc(/C=C(\S)C(=O)O)c1O
inactive: [1] 86 % of control | [2] 89 % of control | [3] 89 % of control

CN(C)c1ccc2c(c1)oc(=O)c1ccccc12
inactive: dose: 50.0 mg/kg/injection, schedule: Q01DX001 (ip), vehicle: carboxymethylcellulose (CMC) 93 % of control | [1] 104 % of control | [2] 112 % of control | [3] 91 % of control

O=C(N/N=C/C=C/c1ccccc1)c1ccco1
inactive: dose: 100.0 mg/kg/injection, schedule: Q01DX001 (ip), vehicle: other 87 % of control | dose: 200.0 mg/kg/injection, schedule: Q01DX001 (ip), vehicle: other 87 % of control | dose: 400.0 mg/kg/injection, schedule: Q01DX001 (ip), vehicle: other 93 % of control

N=C(N)c1cccc(NC(=O)Nc2cccc(C(=N)N)c2)c1
inactive: dose: 15.0 mg/kg/injection, schedule: Q01DX Z (ip), vehicle: saline 104 % of control | dose: 30.0 mg/kg/injection, schedule: Q01DX Z (ip), vehicle: saline 104 % of control

CO/N=C1\C(C)(C)C(C)(C)C(C)(C)C1(C)SS(=O)(=O)O (stereo not drawn)
inactive: dose: 100.0 mg/kg/injection, schedule: Q04DX002 (ip), vehicle: saline 90 % of control | dose: 200.0 mg/kg/injection, schedule: Q04DX002 (ip), vehicle: saline 101 % of control | dose: 400.0 mg/kg/injection, schedule: Q04DX002 (ip), vehicle: saline 107 % of control

COC(=O)C(CCl)NC(=O)c1ccccc1 (stereo not drawn)
inactive: [18] 105 % of control | dose: 100.0 mg/kg/injection, schedule: Q01DX009 (ip), vehicle: saline 90 % of control | [16] 102 % of control | dose: 200.0 mg/kg/injection, schedule: Q01DX009 (ip), vehicle: saline 95 % of control | [17] 96 % of control

O=c1ccn(-c2ccccc2)c(=S)[nH]1
inactive: [5] 96 % of control | [6] 95 % of control | [7] 96 % of control | [8] 95 % of control | [9] 100 % of control

C=C(Br)CNC(=O)NCCCl
inactive: dose: 100.0 mg/kg/injection, schedule: Q01DX001 (ip), vehicle: Klucel (hydroxypropylcellulose) (HPC) 90 % of control | dose: 200.0 mg/kg/injection, schedule: Q01DX001 (ip), vehicle: Klucel (hydroxypropylcellulose) (HPC) 96 % of control
